In patent US20260364184A1, “COMPOUND BASED ON OXOISOINDOLINYL-SUBSTITUTED TETRAHYDROPYRIMIDINE-DIONE AND USE THEREOF” (GLUETACS THERAPEUTICS (SHANGHAI) CO., LTD., priority 2023, published 2026):

What was measured:
[1] = tested on: Human malignant melanoma cell line (A375); experiment: Inhibition of A375 cell proliferation (CellTiter luminescent viability); conditions: A-375, Table III (II1), EZH2 inhibitor-based, 96 hours; for inhibition at 0.01 µM: A375, 10 nM, read-out: Inhibition Rate at 10 nM (%); for inhibition at 0.5 µM: A375, 500 nM, read-out: Inhibition Rate at 500 nM (%)
Protocol: (§1) The tumor cells used herein were cultured in a cell culture medium listed in table 3 at 37 °C in an incubator with 5% CO2. Prior to experimentation, all cell lines used were correctly identified by STR profiling, and tested negative for mycoplasma contamination using a mycoplasma detection kit through routine screenings.
(§2) The IC50 values of the compounds of the present disclosure (including the compounds in Table 1, Table 2, and Examples 1-468) were determined using the CellTiter-Meiluncell Luminescent Cell Viability Assay Kit from Dalian Meilun Biotech Co., Ltd. The detailed procedure is as follows: Tumor cells were seeded in 96-well cell culture plates at the densities specified in Table 4. On the following day, the test compounds of the present disclosure were subjected to serial dilution. The dilution can be performed according to one of the following two methods: • (1) The first dilution method: The test compounds of the present disclosure (including the compounds in Table 1, Table 2, and Examples 1-468) were subjected to 5-fold serial dilutions starting from a highest concentration of 2000 μM, resulting in a total of 9 concentrations from high to low (2000, 400, 80, 16, 3.2, 0.64, 0.128, 0.0256, 0.00512 μM). Subsequently, 0.5 μL of the test compound dilution was transferred into the 96-well plate containing the cells, with each well containing 100 μL of cell culture medium. […] Into the 96-well plate, the diluted test compounds and corresponding detection reagents were added, resulting in final test compound concentrations of 500 nM and 10 nM, respectively. The experimental procedure is described below using the diluted 2 μM test compound as an example.
(§3) 0.5 μL of the aforementioned diluted compound of the present disclosure (including the compounds in Table 1, Table 2, and Examples 1-468) was added to the seeded cells in 100 μL of medium, yielding a final test compound concentration of 10 nM. After the cells were treated with the compounds of the present disclosure for a specified period, the cell viability assay reagent was added to the culture medium according to the kit's instructions to determine cell viability. […] All controls were treated using the same procedure as the compounds of the present disclosure. The growth inhibition curves for the compounds of the present disclosure were plotted using Prism GraphPad software, and the IC50 values were calculated therefrom.

[2] = tested on: Human neuroblastoma cell line (SK-N-AS); experiment: Inhibition of SK-N-AS cell proliferation (CellTiter luminescent viability); assay type: cell-based; conditions: Table II2, EZH2 inhibitor-based, 96 hours
Protocol: as §1, §2, §3

AKT = experiment: Western blot degradation of AKT; assay type: cell-based; conditions: hPBMC Cell; 24 hours
Protocol: Conventional Western blot assay was performed to evaluate the effects of the compounds of the present disclosure on the expression of target proteins in cells.
(1) Cell Seeding and Protein Harvesting: The selected cells were processed according to the cell seeding procedure and protein harvesting procedure in Table II-2.
(2) To the collected supernatant, 5×SDS sample loading buffer was added, followed by denaturation at 95 °C for 5 minutes. The denatured samples were then separated by SDS-PAGE electrophoresis on a polyacrylamide gel. Proteins were transferred to a nitrocellulose membrane (0.45 μm NC membrane), blocked with blocking buffer at room temperature for 1 hour, and subjected to antibody incubation and development procedures according to the antibody manufacturer's instructions (Cell Signaling Technology).
Half-Maximal Degradation Concentration value (the drug concentration required for degrading proteins by 50%, abbreviated as DC50) reads method: comparing the grayscale values of Western blot bands from drug-treated samples with those from blank DMSO-treated controls, and identifying the drug concentration range at which the grayscale value is half that of the DMSO-treated control bands.
DC50 values can be calculated using ImageJ software to measure grayscale values of Western blot bands from drug-treated samples. The concentration-response curve is fitted to estimate the drug concentration corresponding to half the grayscale value.
Target protein remaining (%) refers to the percentage of target protein remaining in cells after treatment with protein degrader compounds.
Calculation method for target protein remaining (%): Use ImageJ software to measure grayscale values of Western blot bands from drug (protein degrader)-treated samples. The grayscale value of drug-treated bands is divided by that of internal control protein bands, and the resulting quotient is normalized to obtain the relative percentage of remaining target protein after protein degrader treatment.
Target protein degradation rate (%)=1−target protein remaining (%).

Compound | inhibition at 0.01 µM [1] | inhibition at 0.5 µM [1] | Degradation of substrate protein AKT (substrate protein remaining %) (AKT) | also measured
CCN(c1cc(-c2ccc(CN3CCN(Cc4ccc5c(c4)CN(N4CCC(=O)NC4=O)C5=O)CC3)cc2)cc(C(=O)NCc2c(C)cc(C)[nH]c2=O)c1C)C1CCOCC1 [GT-08508, N-((4,6-dimethyl-2-oxo-1,2-dihydropyridin-3-yl)methyl)-4′-((4-((2-(2,4-dioxotetrahydropyrimidin-1(2H)-yl)-1-oxoisoindolin-5-yl)methyl)piperazin-1-yl)methyl)-5-(ethyl(tetrahydro-2H-pyran-4-yl)amino)-4-methyl-[1,1′-biphenyl]-3-carboxamide] | 20 to 30% | 20 to 30% | – | –
CCN(c1cc(-c2ccc(N3CCN(C4CCN(Cc5ccc6c(c5)C(=O)N(N5CCC(=O)NC5=O)C6=O)CC4)CC3)cc2)cc(C(=O)NCc2c(C)cc(C)[nH]c2=O)c1C)C1CCOCC1 [GT-08515, N-((4,6-dimethyl-2-oxo-1,2-dihydropyridin-3-yl)methyl)-4′-(4-(1-((2-(2,4-dioxotetrahydropyrimidin-1(2H)-yl)-1,3-dioxoisoindolin-5-yl)methyl)piperidin-4-yl)piperazin-1-yl)-5-(ethyl(tetrahydro-2H-pyran-4-yl)amino)-4-methyl-[1,1′-biphenyl]-3-carboxamide] | 20 to 30% | 20 to 30% | – | inhibition at 0.01 µM ([2]; 10 nM, read-out: Inhibition Rate at 10 nM (%)): 20 to 30%; inhibition at 0.5 µM ([2]; 500 nM, read-out: Inhibition Rate at 500 nM (%)): 20 to 30%
CCCc1cc(C)[nH]c(=O)c1CNC(=O)c1cc(-c2ccc(N3CCN(CC4CCN(c5ccc6c(c5)C(=O)N(N5CCC(=O)NC5=O)C6=O)CC4)CC3)nc2)cc2c1cnn2C(C)C [GT-08516, 6-(6-(4-((1-(2-(2,4-dioxotetrahydropyrimidin-1(2H)-yl)-1,3-dioxoisoindolin-5-yl)piperidin-4-yl)methyl)piperazin-1-yl)pyridin-3-yl)-1-isopropyl-N-((6-methyl-2-oxo-4-propyl-1,2-dihydropyridin-3-yl)methyl)-1H-indazole-4-carboxamide] | 20 to 30% | 20 to 30% | – | –
CCN(c1cc(-c2ccc(CN3CCN(CC4CCN(c5ccc6c(c5)C(=O)N(N5CCC(=O)NC5=O)C6=O)CC4)CC3)cc2)cc(C(=O)NCc2c(C)cc(C)[nH]c2=O)c1C)C1CCOCC1 [GT-08518, N-((4,6-dimethyl-2-oxo-1,2-dihydropyridin-3-yl)methyl)-4′-((4-((1-(2-(2,4-dioxotetrahydropyrimidin-1(2H)-yl)-1,3-dioxoisoindolin-5-yl)piperidin-4-yl)methyl)piperazin-1-yl)methyl)-5-(ethyl(tetrahydro-2H-pyran-4-yl)amino)-4-methyl-[1,1′-biphenyl]-3-carboxamide] | 20 to 30% | 20 to 30% | – | –
Cn1ncc(Cl)c1-c1cc(C(=O)N[C@H](CNCc2ccc3c(c2)CN(N2CCC(=O)NC2=O)C3=O)Cc2cccc(F)c2)sc1Cl [GT-08572, (S)-5-chloro-4-(4-chloro-1-methyl-1H-pyrazol-5-yl)-N-(1-(((2-(2,4-dioxotetrahydropyrimidin-1(2H)-yl)-1-oxoisoindolin-5-yl)methyl)amino)-3-(3-fluorophenyl)propan-2-yl)thiophene-2-carboxamide] | – | – | A (0%≤substrate protein remaining %≤80%) | –
Nc1ncccc1-c1nc2ccc(-c3ccccc3)nc2n1-c1ccc(C2(NCc3ccc4c(c3)CN(N3CCC(=O)NC3=O)C4=O)CCC2)cc1 [GT-08573, 1-(5-(((1-(4-(2-(2-aminopyridin-3-yl)-5-phenyl-3H-imidazo[4,5-b]pyridin-3-yl)phenyl)cyclobutyl)amino)methyl)-1-oxoisoindolin-2-yl)dihydropyrimidine-2,4 (1H,3H)-dione] | – | – | A (0%≤substrate protein remaining %≤80%) | –
Cn1ncc(Cl)c1-c1cc(C(=O)N[C@@H](Cc2ccc(F)c(F)c2)CN2CCN(Cc3ccc4c(c3)CN(N3CCC(=O)NC3=O)C4=O)CC2)oc1Cl [GT-08575, (S)-5-chloro-4-(4-chloro-1-methyl-1H-pyrazol-5-yl)-N-(1-(3,4-difluorophenyl)-3-(4-((2-(2,4-dioxotetrahydropyrimidin-1(2H)-yl)-1-oxoisoindolin-5-yl)methyl)piperazin-1-yl)propan-2-yl) furan-2-carboxamide] | – | – | A (0%≤substrate protein remaining %≤80%) | –
Cn1ncc(Cl)c1-c1cc(C(=O)N[C@H](CNCc2ccc3c(c2)C(=O)N(N2CCC(=O)NC2=O)C3=O)Cc2cccc(F)c2)sc1Cl [GT-08577, (S)-5-chloro-4-(4-chloro-1-methyl-1H-pyrazol-5-yl)-N-(1-(((2-(2,4-dioxotetrahydropyrimidin-1(2H)-yl)-1,3-dioxoisoindolin-5-yl)methyl)amino)-3-(3-fluorophenyl)propan-2-yl)thiophene-2-carboxamide] | – | – | A (0%≤substrate protein remaining %≤80%) | –
Nc1ncccc1-c1nc2ccc(-c3ccccc3)nc2n1-c1ccc(C2(NCc3ccc4c(c3)C(=O)N(N3CCC(=O)NC3=O)C4=O)CCC2)cc1 [GT-08578, 5-(((1-(4-(2-(2-aminopyridin-3-yl)-5-phenyl-3H-imidazo[4,5-b]pyridin-3-yl)phenyl)cyclobutyl)amino)methyl)-2-(2,4-dioxotetrahydropyrimidin-1(2H)-yl)isoindoline-1,3-dione] | – | – | A (0%≤substrate protein remaining %≤80%) | –
Cn1ncc(Cl)c1-c1cc(C(=O)N[C@H](CNCc2ccc3c(c2)C(=O)N(N2CCC(=O)NC2=O)C3=O)Cc2ccc(F)c(F)c2)oc1Cl [GT-08579, (S)-5-chloro-4-(4-chloro-1-methyl-1H-pyrazol-5-yl)-N-(1-(3,4-difluorophenyl)-3-(((2-(2,4-dioxotetrahydropyrimidin-1(2H)-yl)-1,3-dioxoisoindolin-5-yl)methyl)amino)propan-2-yl) furan-2-carboxamide] | – | – | A (0%≤substrate protein remaining %≤80%) | –
Cn1ncc(Cl)c1-c1cc(C(=O)N[C@@H](Cc2ccc(F)c(F)c2)CN2CCN(Cc3ccc4c(c3)C(=O)N(N3CCC(=O)NC3=O)C4=O)CC2)oc1Cl [GT-08580, (S)-5-chloro-4-(4-chloro-1-methyl-1H-pyrazol-5-yl)-N-(1-(3,4-difluorophenyl)-3-(4-((2-(2,4-dioxotetrahydropyrimidin-1(2H)-yl)-1,3-dioxoisoindolin-5-yl)methyl)piperazin-1-yl)propan-2-yl) furan-2-carboxamide] | – | – | A (0%≤substrate protein remaining %≤80%) | –
Cn1ncc(Cl)c1-c1cc(C(=O)N[C@@H](Cc2cccc(F)c2)CN2CCN(Cc3ccc4c(c3)C(=O)N(N3CCC(=O)NC3=O)C4=O)CC2)sc1Cl [GT-08581, (S)-5-chloro-4-(4-chloro-1-methyl-1H-pyrazol-5-yl)-N-(1-(4-((2-(2,4-dioxotetrahydropyrimidin-1(2H)-yl)-1,3-dioxoisoindolin-5-yl)methyl)piperazin-1-yl)-3-(3-fluorophenyl)propan-2-yl)thiophene-2-carboxamide] | – | – | A (0%≤substrate protein remaining %≤80%) | –
CCN(c1cc(-c2ccc(CN3CCOCC3)cc2)cc(C(=O)NCc2c(C)cc(C)[nH]c2=O)c1C)C1CCOCC1 [Tazemetostat, reference compound] | 0 to 5% | 0 to 5% | – | –
